This note sets out measurements from patent publication US4904668A, “Benzoyl urea compound” (Ishihara Sangyo Kaisha Ltd., priority 1986, dated 1990).

Usually AUC(0-t) stands for the area under the concentration-time curve up to a stated or last time point. Read a high AUC(0-t) as high exposure.

A short description of data set [1]: oral administration of wet pulverized formulations to rats, AUC of concentration in blood. It is filed as in vivo, Wister male rats. As to conditions: rat, plasma, 50 mg/kg, 50 mg/5 ml/kg, compound 40 w/v%, HCO-60 10 w/v%. The procedure:
Each of four wet pulverized formulations having different particle sizes [composition: Compound No. 3 (40 w/v%) and HCO-60 (10 w/v%)] was forcibly orally administered by an oral sonde to a group of 5 Wister male rats (body weight: 200 g) starved for 18 hours (dose: 50 mg/5 ml/kg). Then, blood (0.3 ml) was periodically sampled with heparin from the jugular vein. The blood thus obtained was subjected to separation of the plasma and removal of proteins by using acetonitrile, and then Compound No. 3 was quantitatively analyzed by a high speed liquid chromatography using a reversed phase column (Nova Pak C18, 5μ, 3.9 mm in diameter×150 mm, Nihon Waters), and the curve of the concentration in blood was prepared. From the curve of the concentration in blood, the area below the curve was obtained by using a trapezoid formula and presented as AUC (Area Under the Curve).

Data set [2] in a line: average particle size of pulverized benzoyl urea compound by light scattering (Autosizer Model 700). The note with it: for average particle size in the liquid formulation: 3000 rpm 45 minutes, autoclaved. Type of data set: physicochemical. The procedure: Compound No. 3, No. 5 or No. 6 (4 w/v%) as the benzoyl urea compound and polyoxyethylene hardened caster oil 60 (HCO-60, manufactured by Nikko Chemical K.K., 10 w/v%) as a dispersant were suspended in water, and after an addition of glass beads (from 1 to 1.4 mm in diameter) in an amount of the same volume, subjected to rotary pulverization by Dyno-mill for 20 minutes.
(§1) The average particle size was measured in such a manner that the benzoyl urea compound was diluted to a concentration of 20 μg/ml and the average particle size was measured by a light scattering method (Autosizer, Model 700, manufactured by Maruburn Company) (the same applies hereinafter).
Compound No. 3 (4 w/v%) and the following dispersant (10 w/v%) were suspended in water, and after an addition of glass beads (from 1 to 1.4 mm in diameter) in an amount of the same volume, subjected to rotary pulverization by Dyno-mill for 45 minutes. As the dispersant, polyoxyethylene hardened caster oil 60 (HCO-60, manufactured by Nikko Chemical K.K.), polyoxyethylene (160) polyoxypropylene (30) glycol (F68, manufactured by Asahi Denka Kogyo K.K.), a decaglycerol fatty acid ester (Decagly.ester, Nikko Chemical K.K.) or polysolbate 80 (Tween 80, manufactured by Nakarai Kagaku K.K.) was employed.
Compound No. 3 (from 10 to 40 w/v%), HCO-60 (5 w/v%) as a dispersant and glass beads (from 1 to 1.5 mm in diameter) were subjected to rotary pulverization by Dyno-mill for pulverization time of 30 minutes. Then, the average particle size of the benzoyl urea compound was measured.
Compound No. 3 (20 w/v%), HCO-60 (from 2.5 to 10 w/v%) as the dispersant and glass beads (from 1 to 1.5 mm in diameter) were subjected to rotary pulverization by Dyno-mill for a pulverization time of 30 minutes. Then, the average particle size of the benzoyl urea compound was measured.
Compound No. 3 (40 w/v%), HCO-60 (5 w/v%) as the dispersant and glass beads (three types having a diameter of from 0.25 to 0.5, from 0.5 to 0.75 and from 1 to 1.5 mm, respectively) were subjected to rotary pulverization by Dyno-mill for a pulverization time of 30 minutes. Then, the average particle size of the benzoyl urea compound was measured.
Compound No. 3 (40 w/v%), HCO-60 (5 w/v%) as the dispersant and glass beads (from 0.25 to 0.5 mm in diameter), were subjected to rotary pulverization by Dyno-mill for a pulverization time of from 10 to 60 minutes. Then, the average particle size of the benzoyl urea compound was measured.
Compound No. 3 (20 g) was suspended in 50 ml of a 5 w/v% HCO-60 aqueous solution, and the suspension was wet pulverized (3000 rpm for 45 minutes) by Dyno-mill by using 50 g of glass beads (from 0.25 to 0.5 mm in diameter). After the completion of the pulverization, glass beads were removed by sieving, to obtain a wet pulverized formulation of Compound No. 3.
The wet pulverized formulation thus obtained was sterilized in an autoclave to obtain a liquid formulation of a final form. The average particle size of Compound No. 3 in this liquid formulation was 0.68 μm. Instead of the sterilization in an autoclave, it is possible to employ filtration to remove bacteria. If necessary, a sweetening agent, a perfume, etc. may be added.
Compound No. 3 (15 g) was suspended in 50 ml of a 5 w/v% decaglycerol monolaurate (Decagline 1 L, manufactured by Nikko Chemical K.K.) aqueous solution, and the suspension was wet pulverized (3000 rpm for 45 minutes) by Dyno-mill by using 50 g of glass beads (from 0.25 to 0.5 mm in diameter). After the completion of the pulverization, glass beads were removed by sieving, to obtain a wet pulverized formulation of Compound No. 3.
The wet pulverized formulation thus obtained was sterilized in an autoclave to obtain a liquid formulation of a final form. The average particle size of Compound No. 3 in this liquid formulation was 0.75 μm. Instead of the sterilization in an autoclave, it is possible to employ filtration to remove bacteria. If necessary, a sweetening agent, a perfume, etc. may be added. […]

Data set [3] can be described thus: stability of particles in the liquid composition on storage at room temperature. Type of data set: physicochemical. As to conditions: compound 40 w/v%, HCO-60 10 w/v%. The method, then: as §1
The stability of particles in the liquid composition of the benzoyl urea compound was investigated.
Namely, a wet pulverization formulation comprising compound No. 3 (40 w/v%) and HCO-60 (10 w/v%) was stored at room temperature, whereby the stability of the particles was investigated.

The mark [4] stands for this setting: compound 4 w/v%, HCO-60 10 w/v%, glass beads 1 to 1.4 mm, Dyno-mill 20 minutes.

For the molecule `O=C(NC(=O)c1ccccc1[N+](=O)[O-])Nc1ccc(Oc2ncc(Br)cn2)c(Cl)c1` [Compound No. 3], the area under the curve AUC(0-t) at 24 h is 11600 ± 2300 ng·h/mL in data set [1] (particle size 0.31 μm), 10000 ± 1600 ng·h/mL in data set [1] (particle size 0.66 μm), 8100 ± 1200 ng·h/mL in data set [1] (particle size 1.5 μm) and 6900 ± 1400 ng·h/mL in data set [1] (particle size 2.5 μm). In addition, the “average particle size in the liquid formulation” value in data set [2] (Example 1: 20 g in 50 ml 5 w/v% HCO-60, beads 0.25 to 0.5 mm) was 0.68 μm; in data set [2] (Example 3: 15 g in 50 ml 5 w/v% decaglycerol monolaurate, beads 0.25 to 0.5 mm), 0.75 μm. Besides, the “Particle size (average)” value in data set [2] (setting [4]) stood at 0.43 μm; in data set [2] (diameter of beads 0.25-0.5 mm, compound 40 w/v%, HCO-60 5 w/v%, 30 minutes) it was 0.30 μm; in data set [2] (diameter of beads 0.5-0.75 mm, compound 40 w/v%, HCO-60 5 w/v%, 30 minutes) it was 0.33 μm; in data set [2] (diameter of beads 1-1.5 mm, compound 40 w/v%, HCO-60 5 w/v%, 30 minutes (Table 5)), 0.46 μm; in data set [2] (dispersant Decagly.ester 10 w/v%, compound 4 w/v%, beads 1 to 1.4 mm, 45 minutes), 0.6 μm; in data set [2] (dispersant F68 10 w/v%, compound 4 w/v%, beads 1 to 1.4 mm, 45 minutes), 0.9 μm. The “Particle size (average)” value in data set [2] (dispersant HCO-60 2.5 w/v%, compound 20 w/v%, beads 1 to 1.5 mm, 30 minutes) was 0.54 μm; in data set [2] (dispersant HCO-60 5 w/v%, compound 20 w/v%, beads 1 to 1.5 mm, 30 minutes (Table 4)), 0.50 μm; in data set [2] (dispersant HCO-60 10 w/v%, compound 4 w/v%, beads 1 to 1.4 mm, 45 minutes) it was 0.9 μm; in data set [2] (dispersant HCO-60 10 w/v%, compound 20 w/v%, beads 1 to 1.5 mm, 30 minutes), 0.45 μm; in data set [2] (dispersant Tween 80 10 w/v%, compound 4 w/v%, beads 1 to 1.4 mm, 45 minutes) it was 0.6 μm; in data set [2] (pulverization time 10 minutes, compound 40 w/v%, HCO-60 5 w/v%, beads 0.25 to 0.5 mm), 0.38 μm. Further, the “Particle size (average)” value in data set [2] (pulverization time 20 minutes, compound 40 w/v%, HCO-60 5 w/v%, beads 0.25 to 0.5 mm) is 0.33 μm; in data set [2] (pulverization time 30 minutes, compound 40 w/v%, HCO-60 5 w/v%, beads 0.25 to 0.5 mm (Table 6)) it was 0.29 μm; in data set [2] (pulverization time 40 minutes, compound 40 w/v%, HCO-60 5 w/v%, beads 0.25 to 0.5 mm), 0.27 μm; in data set [2] (pulverization time 50 minutes, compound 40 w/v%, HCO-60 5 w/v%, beads 0.25 to 0.5 mm), 0.26 μm; in data set [2] (pulverization time 60 minutes, compound 40 w/v%, HCO-60 5 w/v%, beads 0.25 to 0.5 mm), 0.26 μm; in data set [2] (sample 10 w/v%, HCO-60 5 w/v%, beads 1 to 1.5 mm, 30 minutes) it was 0.56 μm. Besides, the “Particle size (average)” value in data set [2] (sample 20 w/v%, HCO-60 5 w/v%, beads 1 to 1.5 mm, 30 minutes) was 0.50 μm; in data set [2] (sample 40 w/v%, HCO-60 5 w/v%, beads 1 to 1.5 mm, 30 minutes) it was 0.46 μm. For the same molecule, the “Particle size on storage” value in data set [3] (0 months) turned out to be 0.7 μm; in data set [3] (1 month), 0.8 μm; in data set [3] (3 months), 1.3 μm.

Regarding `O=C(NC(=O)c1ccccc1[N+](=O)[O-])Nc1ccc(Oc2ncc(Cl)cn2)c(C(F)(F)F)c1` [Compound No. 5], the “Particle size (average)” value in data set [2] (setting [4]) amounted to 1.13 μm.

With `O=C(NC(=O)c1ccccc1[N+](=O)[O-])Nc1ccc(Oc2ncc(Cl)cn2)c([N+](=O)[O-])c1` [Compound No. 6], the “Particle size (average)” value in data set [2] (setting [4]) stood at 0.72 μm.
